Laboratory results reported in ChEMBL document CHEMBL3044711, “Synthesis, characterization, and antimicrobial activity of some new 2-diazo-benzimidazole derivatives and their Ni(II), Cu(II), and Ag(I) complexes” (2013).
Calls of active or inactive are those of the source. The rule behind the calls is not given here.

Experiments:
Format in all cases: functional
Aspergillus niger = test: Antimicrobial activity against Aspergillus niger assessed as diameter of growth inhibition zone at 1 mg/ml after 48 hr by potato dextrose agar well diffusion method
Bacillus subtilis = test: Antimicrobial activity against Bacillus subtilis assessed as diameter of growth inhibition zone at 1 mg/ml after 24 hr by nutrient agar well diffusion method; settings: for zone of inhibition at 1000 µg/mL: read-out: DIZ
Klebsiella pneumoniae = test: Antimicrobial activity against Klebsiella pneumoniae assessed as diameter of growth inhibition zone at 1 mg/ml after 24 hr by nutrient agar well diffusion method
Staphylococcus aureus = test: Antimicrobial activity against Staphylococcus aureus assessed as diameter of growth inhibition zone at 1 mg/ml after 24 hr by nutrient agar well diffusion method; settings: for zone of inhibition at 1000 µg/mL: read-out: DIZ
Escherichia coli = test: Antimicrobial activity against Escherichia coli assessed as diameter of growth inhibition zone at 1 mg/ml after 24 hr by nutrient agar well diffusion method; settings: read-out: DIZ
Candida albicans = test: Antimicrobial activity against Candida albicans assessed as diameter of growth inhibition zone at 1 mg/ml after 48 hr by potato dextrose agar well diffusion method

Row | Compound | zone of inhibition at 1000 µg/mL (Bacillus subtilis) | zone of inhibition at 1000 µg/mL (Staphylococcus aureus) | zone of inhibition at 1000 µg/mL (Escherichia coli) | inhibition (Klebsiella pneumoniae) | also measured
1 | CCOC(=O)C(C#N)/N=N/c1nc2ccccc2[nH]1 (stereo not drawn) | 8 mm | 7.5 mm | 8.5 mm |  | zone of inhibition at 1000 µg/mL (Aspergillus niger; read-out: DIZ): 8.5 mm; zone of inhibition at 1000 µg/mL (Klebsiella pneumoniae; read-out: DIZ): 9 mm; zone of inhibition at 1000 µg/mL (Candida albicans; read-out: DIZ): 9 mm
2 | CC1(C)S[C@@H]2[C@H](NC(=O)[C@H](N)c3ccccc3)C(=O)N2[C@H]1C(=O)O [AMPICILLIN] | 29.5 mm | 30.5 mm | 31.2 mm | inactive | 
3 | NYSTATIN |  |  |  |  | inhibition zone (IZ) (Aspergillus niger): 25 mm; inhibition zone (IZ) (Candida albicans): 36 mm
4 | N#CC(C#N)/N=N/c1nc2ccccc2[nH]1 |  |  | 10.8 mm | inactive | inhibition (Aspergillus niger): inactive; inhibition (Bacillus subtilis): inactive; inhibition (Staphylococcus aureus): inactive; inhibition (Candida albicans): inactive
